Assay [1] has as its target T1, Serine/threonine-protein kinase BRSK1 (Homo sapiens) (UniProt Q8TDC3).
T1 sequence (whole entry): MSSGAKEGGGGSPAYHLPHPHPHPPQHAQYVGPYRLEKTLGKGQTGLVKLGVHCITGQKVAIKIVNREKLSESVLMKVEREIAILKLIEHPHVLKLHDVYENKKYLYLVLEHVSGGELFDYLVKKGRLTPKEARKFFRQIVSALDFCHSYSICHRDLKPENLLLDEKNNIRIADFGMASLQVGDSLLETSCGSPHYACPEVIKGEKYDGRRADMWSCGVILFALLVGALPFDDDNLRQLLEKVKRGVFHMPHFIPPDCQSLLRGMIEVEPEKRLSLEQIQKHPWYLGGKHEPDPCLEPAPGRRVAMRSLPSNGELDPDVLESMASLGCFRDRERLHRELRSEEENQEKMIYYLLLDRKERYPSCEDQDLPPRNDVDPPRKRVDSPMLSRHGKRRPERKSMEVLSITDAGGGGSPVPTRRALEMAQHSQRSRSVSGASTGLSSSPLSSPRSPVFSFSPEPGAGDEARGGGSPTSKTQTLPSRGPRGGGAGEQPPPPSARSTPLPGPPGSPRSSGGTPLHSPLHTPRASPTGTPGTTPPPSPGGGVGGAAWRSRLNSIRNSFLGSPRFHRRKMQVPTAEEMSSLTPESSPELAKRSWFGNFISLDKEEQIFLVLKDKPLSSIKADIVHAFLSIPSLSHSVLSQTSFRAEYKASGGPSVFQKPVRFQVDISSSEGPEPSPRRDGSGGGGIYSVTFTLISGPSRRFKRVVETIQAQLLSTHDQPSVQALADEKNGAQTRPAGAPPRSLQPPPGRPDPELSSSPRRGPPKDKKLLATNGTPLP
The assay is described as follows: Selectivity interaction (Ambit KINOMEscan and KiNATiv profiling in Jurkat cells) EUB0000090b BRSK1. The assay is classed as cell-based. The conditions noted are these: at 1 µM.

Assay [2] deals with Tyrosine-protein kinase receptor UFO (Homo sapiens) (UniProt P30530). The assay is described as follows: Selectivity interaction (KinomeScan (DiscoverX)) EUB0001079a AXL. The conditions noted are these: at 1 µM.
Assay [3] addresses Ribosomal protein S6 kinase alpha-1 (Homo sapiens, UniProt Q15418). The assay is described as follows: Selectivity interaction (ActivX KiNativ screen (kinase selectivity in THP-1 cell lysates)) EUB0000639a RPS6KA1. Type of assay: subcellular. The conditions noted are these: lysate, at 5 µM.
The target in assay [4] is T2, Tyrosine-protein kinase Tec (Homo sapiens) (UniProt P42680).
T2 sequence (whole entry): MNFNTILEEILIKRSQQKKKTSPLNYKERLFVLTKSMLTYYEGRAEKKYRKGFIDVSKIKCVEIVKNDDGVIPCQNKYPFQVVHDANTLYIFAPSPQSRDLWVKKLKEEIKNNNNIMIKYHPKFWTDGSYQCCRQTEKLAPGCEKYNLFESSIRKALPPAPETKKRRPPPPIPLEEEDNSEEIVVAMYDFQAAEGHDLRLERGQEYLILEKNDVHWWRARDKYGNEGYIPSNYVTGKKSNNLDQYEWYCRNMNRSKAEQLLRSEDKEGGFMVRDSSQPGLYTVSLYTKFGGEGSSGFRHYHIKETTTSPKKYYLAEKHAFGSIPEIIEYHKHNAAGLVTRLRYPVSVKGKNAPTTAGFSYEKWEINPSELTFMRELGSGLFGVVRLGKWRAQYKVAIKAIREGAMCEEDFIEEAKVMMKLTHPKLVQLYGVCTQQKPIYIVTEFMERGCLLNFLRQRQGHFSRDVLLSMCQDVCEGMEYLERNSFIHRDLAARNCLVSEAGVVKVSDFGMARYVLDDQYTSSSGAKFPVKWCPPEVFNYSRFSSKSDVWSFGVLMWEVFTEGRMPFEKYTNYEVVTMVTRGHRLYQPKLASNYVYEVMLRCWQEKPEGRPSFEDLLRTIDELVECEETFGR
The assay is described as follows: Selectivity interaction (ActivX KiNativ screen (kinase selectivity in THP-1 cell lysates)) EUB0000639a TEC. Type of assay: subcellular. The conditions noted are these: lysate, at 0.2 µM.

Assay [5] deals with Serine/threonine-protein kinase WNK2 (Homo sapiens) (UniProt Q9Y3S1). The assay is described as follows: Selectivity interaction (Kinase panel (Invitrogen)) EUB0000639a WNK2. The conditions noted are these: at 200 nM.
Assay [6] deals with Serine/threonine-protein kinase SIK1 (Homo sapiens) (UniProt P57059). The assay is described as follows: Selectivity interaction (KinomeScan (DiscoverX)) EUB0000092b SIK1. The conditions noted are these: at 10 µM.
The target in assay [7] is T3, Serine/threonine-protein kinase Nek1 (Homo sapiens) (UniProt Q96PY6).
T3 sequence (whole entry): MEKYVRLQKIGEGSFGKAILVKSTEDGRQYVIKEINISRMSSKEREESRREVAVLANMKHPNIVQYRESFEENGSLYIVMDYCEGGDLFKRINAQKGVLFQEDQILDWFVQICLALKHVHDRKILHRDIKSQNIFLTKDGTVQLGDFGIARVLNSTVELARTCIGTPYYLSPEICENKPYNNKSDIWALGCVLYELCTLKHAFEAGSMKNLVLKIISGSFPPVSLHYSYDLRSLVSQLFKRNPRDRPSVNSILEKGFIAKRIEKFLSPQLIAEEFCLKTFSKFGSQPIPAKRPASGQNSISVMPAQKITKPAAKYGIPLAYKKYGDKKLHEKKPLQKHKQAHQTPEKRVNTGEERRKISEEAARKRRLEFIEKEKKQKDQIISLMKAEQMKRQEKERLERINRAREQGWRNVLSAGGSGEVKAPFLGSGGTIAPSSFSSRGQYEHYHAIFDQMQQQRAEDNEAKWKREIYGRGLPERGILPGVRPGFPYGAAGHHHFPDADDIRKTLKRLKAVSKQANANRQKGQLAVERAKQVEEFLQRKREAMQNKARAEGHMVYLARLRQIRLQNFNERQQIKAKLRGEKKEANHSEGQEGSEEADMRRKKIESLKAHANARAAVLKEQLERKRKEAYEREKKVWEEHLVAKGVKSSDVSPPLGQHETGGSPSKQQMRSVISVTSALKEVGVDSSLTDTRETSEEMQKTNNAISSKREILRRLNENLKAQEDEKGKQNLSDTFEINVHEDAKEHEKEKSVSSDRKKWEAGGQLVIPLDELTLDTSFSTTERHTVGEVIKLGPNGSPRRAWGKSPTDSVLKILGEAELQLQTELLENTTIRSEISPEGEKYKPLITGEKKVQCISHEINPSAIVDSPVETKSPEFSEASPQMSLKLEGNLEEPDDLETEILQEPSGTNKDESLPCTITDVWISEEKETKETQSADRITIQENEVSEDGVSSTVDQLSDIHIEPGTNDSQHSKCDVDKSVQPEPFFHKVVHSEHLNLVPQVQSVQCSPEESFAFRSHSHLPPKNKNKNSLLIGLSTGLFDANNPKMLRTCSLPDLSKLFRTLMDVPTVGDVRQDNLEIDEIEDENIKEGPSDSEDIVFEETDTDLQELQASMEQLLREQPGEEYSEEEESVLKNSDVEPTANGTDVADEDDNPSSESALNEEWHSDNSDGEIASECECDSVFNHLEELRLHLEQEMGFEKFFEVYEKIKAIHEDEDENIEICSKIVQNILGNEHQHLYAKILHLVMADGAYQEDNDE
The conditions noted are these: at 10 µM.

Serine/threonine-protein kinase SIK1 (Homo sapiens), sequence (P57059 whole entry): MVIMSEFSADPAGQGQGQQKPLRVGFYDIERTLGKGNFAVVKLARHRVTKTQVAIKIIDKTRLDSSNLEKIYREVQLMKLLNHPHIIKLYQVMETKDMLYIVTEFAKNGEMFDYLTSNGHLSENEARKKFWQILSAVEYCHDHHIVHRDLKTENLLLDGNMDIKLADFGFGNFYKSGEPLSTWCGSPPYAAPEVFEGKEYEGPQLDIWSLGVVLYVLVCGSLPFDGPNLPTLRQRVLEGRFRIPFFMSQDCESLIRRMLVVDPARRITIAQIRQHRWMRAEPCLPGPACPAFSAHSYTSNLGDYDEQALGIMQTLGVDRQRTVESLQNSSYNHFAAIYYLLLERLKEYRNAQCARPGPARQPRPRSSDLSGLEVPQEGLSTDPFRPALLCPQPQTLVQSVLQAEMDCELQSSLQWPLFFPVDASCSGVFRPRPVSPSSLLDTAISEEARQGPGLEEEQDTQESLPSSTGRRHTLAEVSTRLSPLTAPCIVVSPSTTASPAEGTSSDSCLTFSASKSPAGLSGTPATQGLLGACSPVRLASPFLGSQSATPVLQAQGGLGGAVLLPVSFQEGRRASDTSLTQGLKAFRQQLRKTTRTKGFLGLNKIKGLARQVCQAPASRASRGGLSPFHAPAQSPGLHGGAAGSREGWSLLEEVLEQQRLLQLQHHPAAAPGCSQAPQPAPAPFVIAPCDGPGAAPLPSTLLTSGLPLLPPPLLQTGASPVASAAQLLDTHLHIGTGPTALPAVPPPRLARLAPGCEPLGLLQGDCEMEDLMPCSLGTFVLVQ
Tyrosine-protein kinase receptor UFO (Homo sapiens), sequence (P30530 whole entry): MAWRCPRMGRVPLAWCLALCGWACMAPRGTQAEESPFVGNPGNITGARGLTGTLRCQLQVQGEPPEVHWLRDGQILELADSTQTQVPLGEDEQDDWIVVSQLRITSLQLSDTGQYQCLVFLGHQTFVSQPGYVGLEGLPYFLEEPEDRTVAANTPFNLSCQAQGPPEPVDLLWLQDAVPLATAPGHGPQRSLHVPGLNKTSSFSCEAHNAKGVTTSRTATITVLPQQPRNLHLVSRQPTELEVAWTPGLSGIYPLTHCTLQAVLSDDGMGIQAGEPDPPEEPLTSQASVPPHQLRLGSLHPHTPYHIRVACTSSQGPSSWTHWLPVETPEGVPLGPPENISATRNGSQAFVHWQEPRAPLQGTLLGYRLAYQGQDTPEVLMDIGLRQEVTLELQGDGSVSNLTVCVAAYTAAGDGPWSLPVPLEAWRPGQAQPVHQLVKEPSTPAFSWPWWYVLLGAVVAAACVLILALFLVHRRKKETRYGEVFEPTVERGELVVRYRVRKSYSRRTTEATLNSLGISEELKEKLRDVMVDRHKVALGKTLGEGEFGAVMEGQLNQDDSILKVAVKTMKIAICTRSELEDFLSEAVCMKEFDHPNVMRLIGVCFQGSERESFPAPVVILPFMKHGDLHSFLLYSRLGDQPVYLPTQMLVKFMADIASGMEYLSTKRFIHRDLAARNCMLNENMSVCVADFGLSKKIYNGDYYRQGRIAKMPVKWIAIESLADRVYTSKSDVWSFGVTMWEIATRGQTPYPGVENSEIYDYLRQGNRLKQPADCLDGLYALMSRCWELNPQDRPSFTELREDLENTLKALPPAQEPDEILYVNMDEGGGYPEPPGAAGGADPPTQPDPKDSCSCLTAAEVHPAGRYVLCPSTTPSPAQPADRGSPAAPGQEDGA
Serine/threonine-protein kinase WNK2 (Homo sapiens), sequence (Q9Y3S1 whole entry): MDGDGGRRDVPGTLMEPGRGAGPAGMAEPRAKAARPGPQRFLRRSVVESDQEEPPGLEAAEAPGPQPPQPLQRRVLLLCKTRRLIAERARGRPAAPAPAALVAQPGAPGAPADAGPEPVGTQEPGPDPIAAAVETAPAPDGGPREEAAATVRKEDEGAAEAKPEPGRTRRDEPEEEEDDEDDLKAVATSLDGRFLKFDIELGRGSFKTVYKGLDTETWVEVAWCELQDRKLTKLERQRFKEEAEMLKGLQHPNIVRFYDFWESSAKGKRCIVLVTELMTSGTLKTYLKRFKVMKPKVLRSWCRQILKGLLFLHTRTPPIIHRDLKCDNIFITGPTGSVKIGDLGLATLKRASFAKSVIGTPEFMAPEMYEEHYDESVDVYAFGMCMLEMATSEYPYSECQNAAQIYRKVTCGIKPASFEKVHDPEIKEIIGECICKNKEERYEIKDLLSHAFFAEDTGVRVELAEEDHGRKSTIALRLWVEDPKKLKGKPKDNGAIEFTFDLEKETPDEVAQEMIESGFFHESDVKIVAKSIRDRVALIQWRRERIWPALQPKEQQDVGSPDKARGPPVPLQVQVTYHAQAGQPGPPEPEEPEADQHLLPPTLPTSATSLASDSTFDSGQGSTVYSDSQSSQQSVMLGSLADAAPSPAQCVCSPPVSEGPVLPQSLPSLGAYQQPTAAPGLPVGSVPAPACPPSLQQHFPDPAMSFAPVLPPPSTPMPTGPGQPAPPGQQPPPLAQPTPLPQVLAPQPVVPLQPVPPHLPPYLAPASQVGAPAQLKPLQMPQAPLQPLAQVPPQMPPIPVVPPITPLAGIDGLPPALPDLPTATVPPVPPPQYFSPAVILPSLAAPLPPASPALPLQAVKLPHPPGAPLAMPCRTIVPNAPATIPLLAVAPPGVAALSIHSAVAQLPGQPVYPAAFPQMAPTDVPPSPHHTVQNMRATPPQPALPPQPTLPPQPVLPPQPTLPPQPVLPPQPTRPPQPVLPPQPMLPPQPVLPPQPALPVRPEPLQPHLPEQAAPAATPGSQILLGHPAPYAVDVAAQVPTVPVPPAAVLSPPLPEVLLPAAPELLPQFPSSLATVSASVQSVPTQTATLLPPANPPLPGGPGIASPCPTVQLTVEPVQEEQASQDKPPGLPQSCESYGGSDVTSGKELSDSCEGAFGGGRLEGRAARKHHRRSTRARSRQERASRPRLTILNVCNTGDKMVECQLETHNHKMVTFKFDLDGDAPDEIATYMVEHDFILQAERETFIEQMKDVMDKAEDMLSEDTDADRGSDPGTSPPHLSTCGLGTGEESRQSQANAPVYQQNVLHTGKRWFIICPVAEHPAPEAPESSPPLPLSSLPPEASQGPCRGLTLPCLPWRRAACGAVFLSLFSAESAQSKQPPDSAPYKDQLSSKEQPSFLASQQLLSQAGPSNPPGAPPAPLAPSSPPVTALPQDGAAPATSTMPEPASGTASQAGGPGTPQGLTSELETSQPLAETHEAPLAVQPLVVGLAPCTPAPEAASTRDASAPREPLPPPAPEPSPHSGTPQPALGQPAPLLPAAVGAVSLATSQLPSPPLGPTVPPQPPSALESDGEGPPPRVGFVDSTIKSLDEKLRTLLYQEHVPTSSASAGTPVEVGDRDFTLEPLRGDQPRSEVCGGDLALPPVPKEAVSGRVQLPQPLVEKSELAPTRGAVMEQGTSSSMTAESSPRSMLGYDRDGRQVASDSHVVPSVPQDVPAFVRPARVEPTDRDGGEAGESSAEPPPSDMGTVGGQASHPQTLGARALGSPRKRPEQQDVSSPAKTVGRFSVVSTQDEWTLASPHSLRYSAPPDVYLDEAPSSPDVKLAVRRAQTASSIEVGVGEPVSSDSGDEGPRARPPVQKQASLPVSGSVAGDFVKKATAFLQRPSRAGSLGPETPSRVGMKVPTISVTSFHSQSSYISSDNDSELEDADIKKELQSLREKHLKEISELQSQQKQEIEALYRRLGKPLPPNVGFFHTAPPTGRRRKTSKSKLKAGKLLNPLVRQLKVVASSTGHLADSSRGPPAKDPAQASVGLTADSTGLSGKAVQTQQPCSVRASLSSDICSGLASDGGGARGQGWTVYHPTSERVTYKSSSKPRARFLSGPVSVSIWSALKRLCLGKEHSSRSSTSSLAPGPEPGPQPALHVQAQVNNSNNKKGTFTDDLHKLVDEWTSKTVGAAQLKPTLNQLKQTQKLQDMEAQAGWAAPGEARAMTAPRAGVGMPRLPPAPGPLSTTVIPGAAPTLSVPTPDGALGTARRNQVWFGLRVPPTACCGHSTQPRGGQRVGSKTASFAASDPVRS
Ribosomal protein S6 kinase alpha-1, sequence (Q15418 whole entry): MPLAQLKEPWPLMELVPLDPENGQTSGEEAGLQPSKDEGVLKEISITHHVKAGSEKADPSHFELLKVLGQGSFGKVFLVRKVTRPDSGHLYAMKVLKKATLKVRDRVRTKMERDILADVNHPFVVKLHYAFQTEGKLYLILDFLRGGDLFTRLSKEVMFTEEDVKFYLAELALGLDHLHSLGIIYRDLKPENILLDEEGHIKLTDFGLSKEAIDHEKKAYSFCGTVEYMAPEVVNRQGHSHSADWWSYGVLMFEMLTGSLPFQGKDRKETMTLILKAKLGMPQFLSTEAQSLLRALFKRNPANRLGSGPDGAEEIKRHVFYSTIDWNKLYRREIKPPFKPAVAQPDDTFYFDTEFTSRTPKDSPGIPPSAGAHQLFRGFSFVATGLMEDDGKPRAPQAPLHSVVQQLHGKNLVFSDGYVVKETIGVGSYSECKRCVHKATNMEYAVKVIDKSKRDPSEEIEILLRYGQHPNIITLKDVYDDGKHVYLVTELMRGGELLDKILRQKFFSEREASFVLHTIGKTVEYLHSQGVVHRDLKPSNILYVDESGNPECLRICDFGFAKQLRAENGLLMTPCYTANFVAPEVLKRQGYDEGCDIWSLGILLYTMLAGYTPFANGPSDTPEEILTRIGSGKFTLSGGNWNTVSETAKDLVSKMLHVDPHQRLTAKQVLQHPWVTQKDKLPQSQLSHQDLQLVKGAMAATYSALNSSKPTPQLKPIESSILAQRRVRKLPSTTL

In the case of `CN(C)C/C=C/C(=O)Nc1ccc(C(=O)N2CCCC(Nc3ncc(Cl)c(-c4c[nH]c5ccccc45)n3)C2)cc1` (configuration not stated), the % of control in assay [1] is 84%.

Regarding `Nc1cnc(N2CCc3cc(S(=O)(=O)Nc4c(F)cc(Cl)cc4F)cc(N4CCCC4=O)c32)nc1` [TP-020n], the % of control in assay [2] was found to be 69%.

Consider `CC[C@@H]1[C@H](F)C(=O)N[C@@H]1COc1nccc2cc(C(N)=O)c(OC)cc12` [ZIMLOVISERTIB], for which the % of inhibition is -38% in assay [3], -52.3% in assay [4] and 3.33% in assay [5].

For the compound `CCC(=O)N1CCN(c2ccc(-n3c(=O)ccc4cnc5ccc(-c6cnc7ccccc7c6)cc5c43)cc2C(F)(F)F)CC1`, the % of control in assay [6] amounted to 80%.

As to `COCC(=O)NC/C=C/c1ccc2ncnc(Nc3ccc(Oc4ccc(C)nc4)c(C)c3)c2c1` [CP-724714], the % of control in assay [7] came to 83%.

Source of the values: ChEMBL document CHEMBL5465560, “Selectivity Literature for EUbOPEN Chemogenomic Library” (2024).
